Reference: US11331314B2, “Amine substituted triazole derivatives and uses thereof” (Bayer Pharma Aktiengesellschaft, priority 2017, dated 2022)

How the values were obtained:
human V2 receptor = target: T1, human V2 receptor (Homo sapiens, UniProt P30518); test: Cellular in vitro assay for determining vasopressin receptor activity, V2 receptor cell line (CRE-luciferase); assay type: cell-based; conditions: CHO cell line transfected with the human V2 receptor; agonist [Arg8]-vasopressin at EC50 concentration; read-out: IC50 hV2
T1 construct: expressed in transfected cells; host or cells: CHO K1 (ATCC) expressing firefly luciferase under a CRE-responsive promoter
Protocol: (§1) B-1. Cellular In Vitro Assay for Determining Vasopressin Receptor Activity
(§2) The identification of agonists and antagonists of the V1a and V2 vasopressin receptors from humans, rats and dogs as well as the quantification of the activity of the compounds of the invention is carried out using recombinant cell lines. These cell lines originally derive from a hamster's ovary epithelial cell (Chinese Hamster Ovary, CHO K1, ATCC: American Type Culture Collection, Manassas, Va. 20108, USA). The test cell lines constitutively express the human, rat or dog V1a or V2 receptors. In case of the Gαq-coupled V1a receptors, cells are also stably transfected with a modified form of the calcium-sensitive photoproteins aequorin (human and rat V1a) or obelin (dog V1a), which, after reconstitution with the cofactor coelenterazine, emit light when there are increases in free calcium concentrations [Rizzuto R, Simpson A W, Brini M, Pozzan T, Nature 358, 325-327 (1992); Illarionov B A, Bondar V S, Illarionova V A, Vysotski E S, Gene 153 (2), 273-274 (1995)]. The resulting vasopressin receptor cells react to stimulation of the recombinantly expressed V1a receptors by intracellular release of calcium ions, which can be quantified by the resulting photoprotein luminescence. The Gs-coupled V2 receptors are stably transfected into cell lines expressing the gene for firefly luciferase under control of a CRE-responsible promoter. Activation of V2 receptors induces the activation of the CRE-responsive promoter via cAMP increase, thereby inducing the expression of firefly luciferase. The light emitted by photoproteins of V1a cell lines as well as the light emitted by firefly luciferase of V2 cell lines corresponds to the activation or inhibition of the respective vasopressin receptor. The bioluminescence of the cell lines is detected using a suitable luminometer [Milligan G, Marshall F, Rees S, Trends in Pharmacological Sciences 17, 235-237 (1996)].
Vasopressin V2 Receptor Cell Lines:
On the day before the assay, the cells are plated out in culture medium (DMEM/F12, 2% FCS, 2 mM glutamine, 10 mM HEPES) in 384-well microtiter plates and kept in a cell incubator (96% humidity, 5% v/v CO2, 37° C.). On the day of the assay, test compounds in various concentrations and the agonist [Arg^8]-vasopressin at EC50 concentration are added together to the wells, and plates are incubated for 3 hours in a cell incubator. Upon addition of the cell lysis reagent Triton™ and the substrate luciferin, luminescence of firefly luciferase is measured in a luminometer.
(§3) Table 1A below lists individual IC50 values for the compounds of the invention (including racemic mixtures as well as separated enantiomers) that were obtained from cell lines transfected with the human V1a or V2 receptor: […]

human V1a receptor = human V1a receptor (Homo sapiens, UniProt P37288); test: Cellular in vitro assay for determining vasopressin receptor activity, V1a receptor cell line (photoprotein luminescence); assay type: cell-based; conditions: for IC50: CHO cell line transfected with the human V1a receptor, agonist [Arg8]-vasopressin at EC50 concentration, read-out: IC50 hV1a; for ratio IC50 hV2/hV1a: selectivity ratio of the cellular IC50 values
Protocol: as §1, §2
Vasopressin V1a Receptor Cell Lines:
On the day before the assay, the cells are plated out in culture medium (DMEM/F12, 2% FCS, 2 mM glutamine, 10 mM HEPES, 5 μg/ml coelenterazine) in 384-well microtiter plates and kept in a cell incubator (96% humidity, 5% v/v CO2, 37° C.). On the day of the assay, test compounds in various concentrations are placed for 10 minutes in the wells of the microtiter plate before the agonist [Arg^8]-vasopressin at EC50 concentration is added. The resulting light signal is measured immediately in a luminometer.
as §3

T1 sequence (P30518 whole entry): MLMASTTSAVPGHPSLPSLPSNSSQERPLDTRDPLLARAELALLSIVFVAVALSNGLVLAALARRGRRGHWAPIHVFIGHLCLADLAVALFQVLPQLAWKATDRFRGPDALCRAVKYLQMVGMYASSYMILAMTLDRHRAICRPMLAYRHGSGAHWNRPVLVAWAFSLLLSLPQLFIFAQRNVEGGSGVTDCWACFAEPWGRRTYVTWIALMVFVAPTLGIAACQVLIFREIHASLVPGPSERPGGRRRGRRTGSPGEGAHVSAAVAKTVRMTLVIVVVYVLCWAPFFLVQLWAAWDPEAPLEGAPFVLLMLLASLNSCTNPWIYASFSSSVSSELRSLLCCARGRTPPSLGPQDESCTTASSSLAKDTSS
Sequence of human V1a receptor (P37288 whole entry): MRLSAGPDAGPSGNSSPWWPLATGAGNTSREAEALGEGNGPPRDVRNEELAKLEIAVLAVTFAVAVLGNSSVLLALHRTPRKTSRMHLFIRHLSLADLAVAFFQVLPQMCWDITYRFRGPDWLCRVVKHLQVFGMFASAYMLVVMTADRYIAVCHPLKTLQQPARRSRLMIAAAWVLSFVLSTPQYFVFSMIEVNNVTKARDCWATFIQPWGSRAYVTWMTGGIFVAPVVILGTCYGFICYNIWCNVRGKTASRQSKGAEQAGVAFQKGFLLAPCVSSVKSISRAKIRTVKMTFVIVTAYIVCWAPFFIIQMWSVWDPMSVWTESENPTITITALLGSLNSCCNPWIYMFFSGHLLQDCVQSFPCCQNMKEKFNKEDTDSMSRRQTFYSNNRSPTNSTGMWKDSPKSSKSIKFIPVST

SMILES | IC50 (human V2 receptor) [nM] | IC50 (human V1a receptor) [nM] | ratio IC50 hV2/hV1a (human V1a receptor)
C[C@H](O)CNc1nc(Cn2nc(-c3ccc(Cl)cc3)n(C[C@H](O)C(F)(F)F)c2=O)nn1-c1ccccc1Cl [Example 50, 5-(4-Chlorophenyl)-2-{[1-(2-chlorophenyl)-5-{[(2S)-2-hydroxypropyl]amino}-1H-1,2,4-triazol-3-yl]methyl}-4-[(2S)-3,3,3-trifluoro-2-hydroxypropyl]-2,4-dihydro-3H-1,2,4-triazol-3-one] | 2.08 | 0.47 | 4.5
O=c1n(Cc2nc(N3CCOC(C(F)(F)F)C3)n(CCC(F)(F)F)n2)nc(-c2ccc(Cl)cc2)n1C[C@H](O)C(F)(F)F (single isomer, unassigned) [Example 105] | 180 | 22 | 8.2
O=c1n(Cc2nc(N3CCC3)n(-c3cccc(F)c3)n2)nc(-c2ccc(Cl)cc2)n1C[C@H](O)C(F)(F)F [Example 121, 2-{[5-(Azetidin-1-yl)-1-(3-fluorophenyl)-1H-1,2,4-triazol-3-yl]methyl}-5-(4-chlorophenyl)-4-[(2S)-3,3,3-trifluoro-2-hydroxypropyl]-2,4-dihydro-3H-1,2,4-triazol-3-one] | 6.12 | 6.4 | 1.0
O=c1n(Cc2nc(N3CCNC(C(F)(F)F)C3)n(CCC(F)(F)F)n2)nc(-c2ccc(Cl)cc2)n1C[C@H](O)C(F)(F)F (mixture of isomers) [Example 106, 5-(4-Chlorophenyl)-4-[(2S)-3,3,3-trifluoro-2-hydroxypropyl]-2-({5-[3-(trifluoromethyl)piperazin-1-yl]-1-(3,3,3-trifluoropropyl)-1H-1,2,4-triazol-3-yl}methyl)-2,4-dihydro-3H-1,2,4-triazol-3-one] | 310 | 26.5 | 11.7
CC(C)(O)CNc1nc(Cn2nc(-c3ccc(Cl)cc3)n(C[C@H](O)C(F)(F)F)c2=O)nn1-c1ncccc1Cl [Example 98, 5-(4-Chlorophenyl)-2-({1-(3-chloropyridin-2-yl)-5-[(2-hydroxy-2-methylpropyl)amino]-1H-1,2,4-triazol-3-yl}methyl)-4-[(2S)-3,3,3-trifluoro-2-hydroxypropyl]-2,4-dihydro-3H-1,2,4-triazol-3-one] | 145 | 1.9 | –
O=c1n(Cc2nc(NCC3(O)CCCNCC3)n(-c3ccccc3Cl)n2)nc(-c2ccc(Cl)cc2)n1C[C@H](O)C(F)(F)F (mixture of isomers) [Example 20] | 12 | 0.42 | 28.6
O=C1CCC(CNc2nc(Cn3nc(-c4ccc(Cl)cc4)n(C[C@H](O)C(F)(F)F)c3=O)nn2-c2ccccc2Cl)N1 (single isomer, unassigned) [Example 65] | 6.45 | 0.63 | 10.2
CC1(C)CN(c2nc(Cn3nc(-c4ccc(Cl)cc4)n(C[C@H](O)C(F)(F)F)c3=O)nn2-c2ccccc2Cl)CCO1 [Example 39, 5-(4-Chlorophenyl)-2-{[1-(2-chlorophenyl)-5-(2,2-dimethylmorpholin-4-yl)-1H-1,2,4-triazol-3-yl]methyl}-4-[(2S)-3,3,3-trifluoro-2-hydroxypropyl]-2,4-dihydro-3H-1,2,4-triazol-3-one] | 18 | 0.58 | 31.0
O=c1n(Cc2nc(N3CCOC(C(F)(F)F)C3)n(-c3ccccc3Cl)n2)nc(-c2ccc(Cl)cc2)n1C[C@H](O)C(F)(F)F (mixture of isomers) [Example 77, 5-(4-Chlorophenyl)-2-({1-(2-chlorophenyl)-5-[2-(trifluoromethyl)morpholin-4-yl]-1H-1,2,4-triazol-3-yl}methyl)-4-[(2S)-3,3,3-trifluoro-2-hydroxypropyl]-2,4-dihydro-3H-1,2,4-triazol-3-one] | 39 | 1.5 | 26.0

The remaining compounds from weak to strong by IC50 (human V2 receptor), led by results:

IC50 (human V2 receptor) [nM] | IC50 (human V1a receptor) [nM] | ratio IC50 hV2/hV1a (human V1a receptor) | SMILES
11.9 | 5.59 | 2.1 | O=c1n(Cc2nc(N3CCCC3)n(-c3cccc(F)c3)n2)nc(-c2ccc(Cl)cc2)n1C[C@H](O)C(F)(F)F [Example 88, 5-(4-Chlorophenyl)-2-{[1-(3-fluorophenyl)-5-(pyrrolidin-1-yl)-1H-1,2,4-triazol-3-yl]methyl}-4-[(2S)-3,3,3-trifluoro-2-hydroxypropyl]-2,4-dihydro-3H-1,2,4-triazol-3-one]
8.9 | 0.81 | 11.0 | CC(=O)N1CCN(c2nc(Cn3nc(-c4ccc(Cl)cc4)n(C[C@H](O)C(F)(F)F)c3=O)nn2-c2ccccc2Cl)CC1 [Example 75, 2-{[5-(4-Acetylpiperazin-1-yl)-1-(2-chlorophenyl)-1H-1,2,4-triazol-3-yl]methyl}-5-(4-chlorophenyl)-4-[(2S)-3,3,3-trifluoro-2-hydroxypropyl]-2,4-dihydro-3H-1,2,4-triazol-3-one]
8.19 | 4.66 | 1.8 | CN(C)c1nc(Cn2nc(-c3ccc(Cl)cc3)n(C[C@H](O)C(F)(F)F)c2=O)nn1-c1cccc(F)c1 [Example 120, 5-(4-Chlorophenyl)-2-{[5-(dimethylamino)-1-(3-fluorophenyl)-1H-1,2,4-triazol-3-yl]methyl}-4-[(2S)-3,3,3-trifluoro-2-hydroxypropyl]-2,4-dihydro-3H-1,2,4-triazol-3-one]
3.45 | 0.39 | 8.9 | NC(CNc1nc(Cn2nc(-c3ccc(Cl)cc3)n(C[C@H](O)C(F)(F)F)c2=O)nn1-c1ccccc1Cl)C(F)(F)F (mixture of isomers) [Example 6, 2-{[5-{[2-Amino-3,3,3-trifluoropropyl]amino}-1-(2-chlorophenyl)-1H-1,2,4-triazol-3-yl]methyl}-5-(4-chlorophenyl)-4-[(2S)-3,3,3-trifluoro-2-hydroxypropyl]-2,4-dihydro-3H-1,2,4-triazol-3-one]
2.79 | 0.36 | 7.8 | O=c1n(Cc2nc(NCCO)n(-c3ccccc3Cl)n2)nc(-c2ccc(Cl)cc2)n1C[C@H](O)C(F)(F)F [Example 80, 5-(4-Chlorophenyl)-2-({1-(2-chlorophenyl)-5-[(2-hydroxyethyl)amino]-1H-1,2,4-triazol-3-yl}methyl)-4-[(2S)-3,3,3-trifluoro-2-hydroxypropyl]-2,4-dihydro-3H-1,2,4-triazol-3-one]
1.9 | 0.48 | 4.0 | COC1CCN(c2nc(Cn3nc(-c4ccc(Cl)cc4)n(C[C@H](O)C(F)(F)F)c3=O)nn2-c2ccccc2Cl)C1 (mixture of isomers) [Example 42, 5-(4-Chlorophenyl)-2-({1-(2-chlorophenyl)-5-[3-methoxypyrrolidin-1-yl]-1H-1,2,4-triazol-3-yl}methyl)-4-[(2S)-3,3,3-trifluoro-2-hydroxypropyl]-2,4-dihydro-3H-1,2,4-triazol-3-one]
0.86 | 0.43 | 2.0 | O=c1n(Cc2nc(NCCN3CCCCS3(=O)=O)n(-c3ccccc3Cl)n2)nc(-c2ccc(Cl)cc2)n1C[C@H](O)C(F)(F)F [Example 25, 5-(4-Chlorophenyl)-2-{[1-(2-chlorophenyl)-5-{[2-(1,1-dioxido-1,2-thiazinan-2-yl)ethyl]amino}-1H-1,2,4-triazol-3-yl]methyl}-4-[(2S)-3,3,3-trifluoro-2-hydroxypropyl]-2,4-dihydro-3H-1,2,4-triazol-3-one]
